Measured values reported in PubChem BioAssay AID1963969 (Molecular Pharmacology Branch, DTP, NCI, 2024).
pIC50: −log10 of the molar value. Several values for one entry are separate records, joined by “and”; a condition that tells them apart may be missing. Equal entries are not always repeated.

System: 817829-284-R-J1-PDC multi-cell spheroid viability
Assay: Anticancer human tumor 817829-284-R-J1-PDC patient-derived colon adenocarcinoma cell line growth inhibition [PI3K]
Settings: for viability, T/C: stronger effect = lower value
In short: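 Targeted small molecules plus PI3K inhibitors, half-log dose series from Cmax (default top 10 microM), were applied to heterotypic spheroids of cancer cells with HUVEC and MSCs. Viability indicated growth inhibition.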

[1] = curve of first compound, second compound 0.00316 µM
[2] = curve of first compound, second compound 0.01 µM
[3] = curve of first compound, second compound 0.0316 µM
[4] = curve of first compound, second compound 0.1 µM
[5] = curve of first compound, second compound 0.316 µM
[6] = curve of first compound, second compound 1 µM
[7] = second compound 0.00316 µM, first compound 0.000316 µM
[8] = second compound 0.00316 µM, first compound 0.001 µM
[9] = second compound 0.00316 µM, first compound 0.00316 µM
[10] = second compound 0.00316 µM, first compound 0.01 µM
[11] = second compound 0.00316 µM, first compound 0.0316 µM
[12] = second compound 0.00316 µM, first compound 0.1 µM
[13] = second compound 0.01 µM, first compound 0.000316 µM
[14] = second compound 0.01 µM, first compound 0.001 µM
[15] = second compound 0.01 µM, first compound 0.00316 µM
[16] = second compound 0.01 µM, first compound 0.01 µM
[17] = second compound 0.01 µM, first compound 0.0316 µM
[18] = second compound 0.01 µM, first compound 0.1 µM
[19] = second compound 0.0316 µM, first compound 0.000316 µM
[20] = second compound 0.0316 µM, first compound 0.001 µM
[21] = second compound 0.0316 µM, first compound 0.00316 µM
[22] = second compound 0.0316 µM, first compound 0.01 µM
[23] = second compound 0.0316 µM, first compound 0.0316 µM
[24] = second compound 0.0316 µM, first compound 0.1 µM
[25] = second compound 0.1 µM, first compound 0.000316 µM
[26] = second compound 0.1 µM, first compound 0.001 µM
[27] = second compound 0.1 µM, first compound 0.00316 µM
[28] = second compound 0.1 µM, first compound 0.01 µM
[29] = second compound 0.1 µM, first compound 0.0316 µM
[30] = second compound 0.1 µM, first compound 0.1 µM
[31] = second compound 0.316 µM, first compound 0.000316 µM
[32] = second compound 0.316 µM, first compound 0.001 µM
[33] = second compound 0.316 µM, first compound 0.00316 µM
[34] = second compound 0.316 µM, first compound 0.01 µM
[35] = second compound 0.316 µM, first compound 0.0316 µM
[36] = second compound 0.316 µM, first compound 0.1 µM
[37] = second compound 1 µM, first compound 0.000316 µM
[38] = second compound 1 µM, first compound 0.001 µM
[39] = second compound 1 µM, first compound 0.00316 µM
[40] = second compound 1 µM, first compound 0.01 µM
[41] = second compound 1 µM, first compound 0.0316 µM
[42] = second compound 1 µM, first compound 0.1 µM
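Note: spheroids exposed to agents for seven days before readout.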
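Throughout, for viability, T/C: percent of vehicle DMSO control viability which is 100%.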

Cn1ncnc1[C@H]1c2n[nH]c(=O)c3cc(F)cc(c23)N[C@@H]1c1ccc(F)cc1 + CC(Nc1ccc2c(c1)OCCn1cc(N3C(=O)OCC3C(F)F)nc1-2)C(N)=O
pIC50 [1]: < 7.00
pIC50 [2]: 7.12
pIC50 [3]: 8.00
pIC50 [4]: 7.32
pIC50 [5]: 7.92
pIC50 [6]: > 9.50
viability, T/C [7]: 95.4%
viability, T/C [8]: 58.2%
viability, T/C [9]: 104%
viability, T/C [10]: 35%
viability, T/C [11]: 71.1%
viability, T/C [12]: 53%
viability, T/C [13]: 75.1%
viability, T/C [14]: 66%
viability, T/C [15]: 75%
viability, T/C [16]: 68.3%
viability, T/C [17]: 70.2%
viability, T/C [18]: 43.3%
viability, T/C [19]: 81.7%
viability, T/C [20]: 101%
viability, T/C [21]: 46.9%
viability, T/C [22]: 65%
viability, T/C [23]: 53.5%
viability, T/C [24]: 43.6%
viability, T/C [25]: 65.6%
viability, T/C [26]: 52.2%
viability, T/C [27]: 60.3%
viability, T/C [28]: 70.9%
viability, T/C [29]: 43%
viability, T/C [30]: 46.6%
viability, T/C [31]: 40.1%
viability, T/C [32]: 65.8%
viability, T/C [33]: 61.2%
viability, T/C [34]: 39.4%
viability, T/C [35]: 49.8%
viability, T/C [36]: 33.3%
viability, T/C [37]: 31.9%
viability, T/C [38]: 60.9%
viability, T/C [39]: 43.1%
viability, T/C [40]: 42.3%
viability, T/C [41]: 36.7%
viability, T/C [42]: 20.8%

Cn1ncc(Cl)c1-c1cc(C(=O)NC(CN)Cc2cccc(F)c2)sc1Cl (centres undefined)
viability, T/C (compound 0.0316 µM): 52.7% and 85.2%
viability, T/C (compound 0.1 µM): 47.4% and 54.1%
viability, T/C (compound 0.316 µM): 31.6% and 27.1%
viability, T/C (compound 1 µM): 18.3% and 22.5%
viability, T/C (compound 3.16 µM): 16.1% and 20.2%
viability, T/C (compound 10 µM): 76.6% and 13.4%
pIC50 (curve of compound): > 7.50 and 6.93

CNC(=O)c1ccc(N2C(=S)N(c3ccc(C#N)c(C(F)(F)F)c3)C(=O)C2(C)C)cc1F + Cc1nc(NC(=O)N2CCCC2C(N)=O)sc1-c1ccnc(C(C)(C)C(F)(F)F)c1
pIC50 [3]: < 5.00
pIC50 [4]: < 5.00
pIC50 [5]: < 5.00
pIC50 [6]: 5.16
pIC50 (curve of first compound, second compound 3.16 µM): 5.63
pIC50 (curve of first compound, second compound 10 µM): 5.94
viability, T/C [23]: 95.7%
viability, T/C [24]: 102%
viability, T/C (second compound 0.0316 µM, first compound 0.316 µM): 96.2%
viability, T/C (second compound 0.0316 µM, first compound 1 µM): 90.2%
viability, T/C (second compound 0.0316 µM, first compound 3.16 µM): 67.6%
viability, T/C (second compound 0.0316 µM, first compound 10 µM): 84.6%
viability, T/C [29]: 69%
viability, T/C [30]: 77.8%
viability, T/C (second compound 0.1 µM, first compound 0.316 µM): 87.4%
viability, T/C (second compound 0.1 µM, first compound 1 µM): 69.3%
viability, T/C (second compound 0.1 µM, first compound 3.16 µM): 56.4%
viability, T/C (second compound 0.1 µM, first compound 10 µM): 68.2%
viability, T/C [35]: 106%
viability, T/C [36]: 85.5%
viability, T/C (second compound 0.316 µM, first compound 0.316 µM): 68.8%
viability, T/C (second compound 0.316 µM, first compound 1 µM): 70.6%
viability, T/C (second compound 0.316 µM, first compound 3.16 µM): 77.2%
viability, T/C (second compound 0.316 µM, first compound 10 µM): 63.3%
viability, T/C [41]: 60%
viability, T/C [42]: 73.6%
viability, T/C (second compound 1 µM, first compound 0.316 µM): 68.7%
viability, T/C (second compound 1 µM, first compound 1 µM): 107%
viability, T/C (second compound 1 µM, first compound 3.16 µM): 63.3%
viability, T/C (second compound 1 µM, first compound 10 µM): 43.8%
viability, T/C (second compound 3.16 µM, first compound 0.0316 µM): 67.3%
viability, T/C (second compound 3.16 µM, first compound 0.1 µM): 77.8%
viability, T/C (second compound 3.16 µM, first compound 0.316 µM): 81.8%
viability, T/C (second compound 3.16 µM, first compound 1 µM): 58.3%
viability, T/C (second compound 3.16 µM, first compound 3.16 µM): 48.5%
viability, T/C (second compound 3.16 µM, first compound 10 µM): 34.5%
viability, T/C (second compound 10 µM, first compound 0.0316 µM): 60%
viability, T/C (second compound 10 µM, first compound 0.1 µM): 70%
viability, T/C (second compound 10 µM, first compound 0.316 µM): 54.8%
viability, T/C (second compound 10 µM, first compound 1 µM): 52.6%
viability, T/C (second compound 10 µM, first compound 3.16 µM): 38.3%
viability, T/C (second compound 10 µM, first compound 10 µM): 22.9%

COc1c(OCCCN2CCOCC2)ccc2c3n(c(=NC(=O)c4cnc(N)nc4)nc12)CCN3
viability, T/C (compound 0.01 µM): 83.5% [middle of 6 runs]
viability, T/C (compound 0.0316 µM): 60.5% [middle of 6 runs]
viability, T/C (compound 0.1 µM): 39.5% [middle of 6 runs]
viability, T/C (compound 0.316 µM): 21.5% [middle of 6 runs]
viability, T/C (compound 1 µM): 10.1% [middle of 6 runs]
IC50 (compound alone, run of 04/25/2023): 58.3 nM [middle of 6 runs]

CC(=O)c1c(C)c2cnc(Nc3ccc(N4CCNCC4)cn3)nc2n(C2CCCC2)c1=O + COc1c(OCCCN2CCOCC2)ccc2c3n(c(=NC(=O)c4cnc(N)nc4)nc12)CCN3
pIC50 [1]: 7.28
pIC50 [2]: < 7.00
pIC50 [3]: 7.91
pIC50 [4]: > 9.50
pIC50 [5]: > 9.50
pIC50 [6]: > 9.50
viability, T/C [7]: 79.1%
viability, T/C [8]: 85.2%
viability, T/C [9]: 66.7%
viability, T/C [10]: 74.5%
viability, T/C [11]: 66.6%
viability, T/C [12]: 30.2%
viability, T/C [13]: 91.1%
viability, T/C [14]: 60%
viability, T/C [15]: 56%
viability, T/C [16]: 55.7%
viability, T/C [17]: 75.7%
viability, T/C [18]: 34%
viability, T/C [19]: 65.2%
viability, T/C [20]: 40.6%
viability, T/C [21]: 48.3%
viability, T/C [22]: 60.6%
viability, T/C [23]: 33.5%
viability, T/C [24]: 24.3%
viability, T/C [25]: 29.2%
viability, T/C [26]: 30.3%
viability, T/C [27]: 34.6%
viability, T/C [28]: 21.1%
viability, T/C [29]: 22.7%
viability, T/C [30]: 25.3%
viability, T/C [31]: 16.9%
viability, T/C [32]: 22.2%
viability, T/C [33]: 20.8%
viability, T/C [34]: 17.9%
viability, T/C [35]: 18.2%
viability, T/C [36]: 16.2%
viability, T/C [37]: 11.2%
viability, T/C [38]: 10.2%
viability, T/C [39]: 8.91%
viability, T/C [40]: 12.2%
viability, T/C [41]: 11.6%
viability, T/C [42]: 7.24%
